Test results taken from publication PMC10006169, “A phase I trial of LXS196, a protein kinase C (PKC) inhibitor, for metastatic uveal melanoma” (British Journal of Cancer, 2023).

Test system: patients with MUM
Test: Adverse events suspected to be study drug related (NCI-CTCAE v4.03)
Type: in vivo, human
Procedure: Routine safety assessments, including laboratory assessments, physical examinations, vital signs and electrocardiograms (ECGs), were conducted at regular intervals throughout the study and more frequently as needed following patient assessment by the treating physician. Adverse events (AEs) were assessed continuously according to the National Cancer Institute Common Terminology Criteria for Adverse Events (NCI-CTCAE) v4.03.

SMILES: CC1(N)CCN(c2cccnc2NC(=O)c2nc(-c3ncccc3C(F)(F)F)cnc2N)CC1 [LXS196]
- Nausea, grade ≥3 (300 mg QD): 0 n (%)
- Patients with ≥1 AE, all grades (300 mg QD): 14 (93.3) n (%)
- Patients with ≥1 AE, grade ≥3 (300 mg QD): 2 (13.3) n (%)
- Rash, all grades (300 mg QD): 3 (20.0) n (%)
- Rash, grade ≥3 (300 mg QD): 0 n (%)
- Vomiting, all grades (300 mg QD): 5 (33.3) n (%)
- Vomiting, grade ≥3 (300 mg QD): 0 n (%)
- ALT increased, all grades (500 mg QD): 3 (27.3) n (%)
- ALT increased, grade ≥3 (500 mg QD): 1 (9.1) n (%)
- AST increased, all grades (500 mg QD): 4 (36.4) n (%)
- AST increased, grade ≥3 (500 mg QD): 1 (9.1) n (%)
- Asthenia, all grades (500 mg QD): 2 (18.2) n (%)
- Asthenia, grade ≥3 (500 mg QD): 0 n (%)
- Blood creatinine increased, all grades (500 mg QD): 0 n (%)
- Blood creatinine increased, grade ≥3 (500 mg QD): 0 n (%)
- Constipation, all grades (500 mg QD): 0 n (%)
- Constipation, grade ≥3 (500 mg QD): 0 n (%)
- Diarrhoea, all grades (500 mg QD): 4 (36.4) n (%)
- Diarrhoea, grade ≥3 (500 mg QD): 0 n (%)
- Dry skin, all grades (500 mg QD): 0 n (%)
- Dry skin, grade ≥3 (500 mg QD): 0 n (%)
- Fatigue, all grades (500 mg QD): 0 n (%)
- Fatigue, grade ≥3 (500 mg QD): 0 n (%)
- Hypotension, all grades (500 mg QD): 4 (36.4) n (%)
- Hypotension, grade ≥3 (500 mg QD): 3 (27.3) n (%)
- Nausea, all grades (500 mg QD): 8 (72.7) n (%)
- Nausea, grade ≥3 (500 mg QD): 0 n (%)
- Patients with ≥1 AE, all grades (500 mg QD): 10 (90.9) n (%)
- Patients with ≥1 AE, grade ≥3 (500 mg QD): 4 (36.4) n (%)
- Rash, all grades (500 mg QD): 0 n (%)
- Rash, grade ≥3 (500 mg QD): 0 n (%)
- Vomiting, all grades (500 mg QD): 5 (45.5) n (%)
- Vomiting, grade ≥3 (500 mg QD): 0 n (%)
- ALT increased, all grades (800 mg QD): 0 n (%)
- ALT increased, grade ≥3 (800 mg QD): 0 n (%)
- AST increased, all grades (800 mg QD): 0 n (%)
- AST increased, grade ≥3 (800 mg QD): 0 n (%)
- Asthenia, all grades (800 mg QD): 0 n (%)
- Asthenia, grade ≥3 (800 mg QD): 0 n (%)
- Blood creatinine increased, all grades (800 mg QD): 0 n (%)
- Blood creatinine increased, grade ≥3 (800 mg QD): 0 n (%)
- Constipation, all grades (800 mg QD): 0 n (%)
- Constipation, grade ≥3 (800 mg QD): 0 n (%)
- Diarrhoea, all grades (800 mg QD): 1 (100) n (%)
- Diarrhoea, grade ≥3 (800 mg QD): 0 n (%)
- Dry skin, all grades (800 mg QD): 0 n (%)
- Dry skin, grade ≥3 (800 mg QD): 0 n (%)
- Fatigue, all grades (800 mg QD): 0 n (%)
- Fatigue, grade ≥3 (800 mg QD): 0 n (%)
- Hypotension, all grades (800 mg QD): 1 (100) n (%)
- Hypotension, grade ≥3 (800 mg QD): 1 (100) n (%)
- Nausea, all grades (800 mg QD): 1 (100) n (%)
- Nausea, grade ≥3 (800 mg QD): 0 n (%)
- Patients with ≥1 AE, all grades (800 mg QD): 1 (100) n (%)
- Patients with ≥1 AE, grade ≥3 (800 mg QD): 1 (100) n (%)
- Rash, all grades (800 mg QD): 0 n (%)
- Rash, grade ≥3 (800 mg QD): 0 n (%)
- Vomiting, all grades (800 mg QD): 0 n (%)
- Vomiting, grade ≥3 (800 mg QD): 0 n (%)
- ALT increased, all grades (1000 mg QD): 1 (25.0) n (%)
- ALT increased, grade ≥3 (1000 mg QD): 0 n (%)
- AST increased, all grades (1000 mg QD): 0 n (%)
- AST increased, grade ≥3 (1000 mg QD): 0 n (%)
- Asthenia, all grades (1000 mg QD): 0 n (%)
- Asthenia, grade ≥3 (1000 mg QD): 0 n (%)
- Blood creatinine increased, all grades (1000 mg QD): 0 n (%)
- Blood creatinine increased, grade ≥3 (1000 mg QD): 0 n (%)
- Constipation, all grades (1000 mg QD): 0 n (%)
- Constipation, grade ≥3 (1000 mg QD): 0 n (%)
- Diarrhoea, all grades (1000 mg QD): 4 (100) n (%)
- Diarrhoea, grade ≥3 (1000 mg QD): 0 n (%)
- Dry skin, all grades (1000 mg QD): 1 (25.0) n (%)
- Dry skin, grade ≥3 (1000 mg QD): 0 n (%)
- Fatigue, all grades (1000 mg QD): 3 (75.0) n (%)
- Fatigue, grade ≥3 (1000 mg QD): 0 n (%)
- Hypotension, all grades (1000 mg QD): 2 (50.0) n (%)
- Hypotension, grade ≥3 (1000 mg QD): 1 (25.0) n (%)
- Nausea, all grades (1000 mg QD): 4 (100) n (%)
- Nausea, grade ≥3 (1000 mg QD): 0 n (%)
- Patients with ≥1 AE, all grades (1000 mg QD): 4 (100) n (%)
- Patients with ≥1 AE, grade ≥3 (1000 mg QD): 2 (50.0) n (%)
- Rash, all grades (1000 mg QD): 0 n (%)
- Rash, grade ≥3 (1000 mg QD): 0 n (%)
- Vomiting, all grades (1000 mg QD): 0 n (%)
- Vomiting, grade ≥3 (1000 mg QD): 0 n (%)
- ALT increased, all grades (All BID): 8 (26.7) n (%)
- ALT increased, grade ≥3 (All BID): 2 (6.7) n (%)
- AST increased, all grades (All BID): 6 (20.0) n (%)
- AST increased, grade ≥3 (All BID): 2 (6.7) n (%)
- Asthenia, all grades (All BID): 7 (23.3) n (%)
- Asthenia, grade ≥3 (All BID): 0 n (%)
- Blood creatinine increased, all grades (All BID): 5 (16.7) n (%)
- Blood creatinine increased, grade ≥3 (All BID): 0 n (%)
- Constipation, all grades (All BID): 3 (10.0) n (%)
- Constipation, grade ≥3 (All BID): 0 n (%)
- Diarrhoea, all grades (All BID): 16 (53.3) n (%)
- Diarrhoea, grade ≥3 (All BID): 1 (3.3) n (%)
